Test results taken from ChEMBL document CHEMBL1275498, “Disposition, metabolism, and excretion of [14C]doripenem after a single 500-milligram intravenous infusion in healthy men” (Antimicrob Agents Chemother, 2008).

Tests used:
[1] = Cmax in healthy man plasma at 500 mg, iv administered as 1 hr infusion by LC-MS/MS analysis; type: ADME, organism-based; design: dose 500 mg, route intravenous; conditions: male, human
[2] = Tmax in healthy man plasma at 500 mg, iv administered as 1 hr infusion by LC-MS/MS analysis; type: ADME, organism-based; conditions: male, human
[3] = AUC (last) in healthy man plasma at 500 mg, iv administered as 1 hr infusion by LC-MS/MS analysis; type: ADME, organism-based; design: dose 500 mg, time 0 - last, route intravenous; conditions: male, human
[4] = AUC (0 to infinity) in healthy man plasma at 500 mg, iv administered as 1 hr infusion by LC-MS/MS analysis; type: ADME, organism-based; design: dose 500 mg, time infinity, route intravenous; conditions: male, human
[5] = Half life in healthy man plasma at 500 mg, iv administered as 1 hr infusion by LC-MS/MS analysis; type: ADME, organism-based; conditions: male, human
[6] = Clearance in healthy man plasma at 500 mg, iv administered as 1 hr infusion by LC-MS/MS analysis; type: ADME, organism-based; conditions: male, human
[7] = Cmax in healthy man plasma assessed as doripenem-M-1 at 500 mg, iv administered as 1 hr infusion by LC-MS/MS analysis; type: ADME, organism-based; design: dose 500 mg, route intravenous; conditions: human, in vivo
[8] = Tmax in healthy man plasma assessed as doripenem-M-1 at 500 mg, iv administered as 1 hr infusion by LC-MS/MS analysis; type: ADME, organism-based; conditions: human, in vivo
[9] = AUC (last) in healthy man plasma assessed as doripenem-M-1 at 500 mg, iv administered as 1 hr infusion by LC-MS/MS analysis; type: ADME, organism-based; design: dose 500 mg, time 0 - last, route intravenous; conditions: human, in vivo
[10] = AUC (0 to infinity) in healthy man plasma assessed as doripenem-M-1 at 500 mg, iv administered as 1 hr infusion by LC-MS/MS analysis; type: ADME, organism-based; design: dose 500 mg, time infinity, route intravenous; conditions: human, in vivo
[11] = Half life in healthy man plasma assessed as doripenem-M-1 at 500 mg, iv administered as 1 hr infusion by LC-MS/MS analysis; type: ADME, organism-based; conditions: human, in vivo
[12] = Cmax in healthy man plasma assessed as total compound-derived radioactivity at 500 mg, iv administered as 1 hr infusion by Liquid scintillation counting; type: ADME, organism-based; design: dose 500 mg, route intravenous; conditions: human, in vivo
[13] = Tmax in healthy man plasma assessed as total compound-derived radioactivity at 500 mg, iv administered as 1 hr infusion by Liquid scintillation counting; type: ADME, organism-based; conditions: human, in vivo
[14] = AUC (last) in healthy man plasma assessed as total compound-derived radioactivity at 500 mg, iv administered as 1 hr infusion by Liquid scintillation counting; type: ADME, organism-based; design: dose 500 mg, time 0 - last, route intravenous; conditions: human, in vivo
[15] = AUC (0 to infinity) in healthy man plasma assessed as total compound-derived radioactivity at 500 mg, iv administered as 1 hr infusion by Liquid scintillation counting; type: ADME, organism-based; design: dose 500 mg, route intravenous, time infinity; conditions: human, in vivo
[16] = Half life in healthy man plasma assessed as total compound-derived radioactivity at 500 mg, iv administered as 1 hr infusion by Liquid scintillation counting; type: ADME, organism-based; conditions: human, in vivo
[17] = Cmax in healthy man whole blood assessed as total compound-derived radioactivity at 500 mg, iv administered as 1 hr infusion by Liquid scintillation counting; type: ADME, organism-based; design: dose 500 mg, route intravenous; conditions: human, in vivo
[18] = Tmax in healthy man whole blood assessed as total compound-derived radioactivity at 500 mg, iv administered as 1 hr infusion by Liquid scintillation counting; type: ADME, organism-based; conditions: human, in vivo
[19] = AUC (last) in healthy man whole blood assessed as total compound-derived radioactivity at 500 mg, iv administered as 1 hr infusion by Liquid scintillation counting; type: ADME, organism-based; design: dose 500 mg, time 0 - last, route intravenous; conditions: human, in vivo
[20] = Drug excretion in healthy man urine at 500 mg, iv administered as 1 hr infusion measured after 4 hrs by Liquid scintillation counting; type: ADME, organism-based; conditions: human, in vivo
[21] = Drug excretion in healthy man urine at 500 mg, iv administered as 1 hr infusion measured after 4 to 8 hrs by Liquid scintillation counting; type: ADME, organism-based; conditions: human, in vivo
[22] = Drug excretion in healthy man urine at 500 mg, iv administered as 1 hr infusion measured after 8 to 12 hrs by Liquid scintillation counting; type: ADME, organism-based; conditions: human, in vivo
[23] = Drug excretion in healthy man urine at 500 mg, iv administered as 1 hr infusion measured after 12 to 24 hrs by Liquid scintillation counting; type: ADME, organism-based; conditions: human, in vivo
[24] = Drug excretion in healthy man urine at 500 mg, iv administered as 1 hr infusion measured after 0 to 12 hrs by Liquid scintillation counting; type: ADME, organism-based; conditions: human, in vivo
[25] = Drug excretion in healthy man urine at 500 mg, iv administered as 1 hr infusion measured after 7 days by Liquid scintillation counting; type: ADME, organism-based; conditions: human, in vivo
[26] = Drug excretion in healthy man feces at 500 mg, iv administered as 1 hr infusion measured after 7 days by Liquid scintillation counting; type: ADME, organism-based; conditions: human, in vivo
[27] = Elimination rate constant in plasma of healthy man dosed at 500 mg, iv administered as 1 hr infusion; type: ADME, organism-based; conditions: male, human
[28] = Elimination rate constant in plasma of healthy man assessed as doripenem-M-1, dosed at 500 mg, iv administered as 1 hr infusion; type: ADME, organism-based; conditions: human, in vivo
[29] = Elimination rate constant in plasma of healthy man assessed as total compound-derived radioactivity, dosed at 500 mg, iv administered as 1 hr infusion; type: ADME, organism-based; conditions: human, in vivo
[30] = Renal clearance in healthy man dosed at 500 mg, iv administered as 1 hr infusion; type: ADME, organism-based, Kidney; conditions: male, human, in vivo
[31] = Renal clearance in healthy man assessed as doripenem-M-1, dosed at 500 mg, iv administered as 1 hr infusion; type: ADME, organism-based, Kidney; conditions: human, in vivo

Cmax [1]: 22900 ng/mL
Tmax [2]: 1.02 h
AUC(0-t) at 1 h [3]: 31500 ng·h/mL
AUC(0-inf) [4]: 31800 ng·h/mL
half-life [5]: 64.2 min
clearance [6]: 267 mL/min
Cmax [7]: 1.56 µg/mL
Tmax [8]: 1.01 h
AUC [9]: 4.03 µg·h/mL
AUC [10]: 4.98 µg·h/mL
t1/2 [11]: 2.54 h
Cmax [12]: 22.1 µg/mL
Tmax [13]: 1.02 h
AUC [14]: 37.5 µg·h/mL
AUC [15]: 39.5 µg·h/mL
t1/2 [16]: 1.59 h
Cmax [17]: 13.2 µg/mL
Tmax [18]: 1.02 h
AUC [19]: 20.2 µg·h/mL
Drug uptake [20]: 85.13%
Drug uptake [21]: 6.69%
Drug uptake [22]: 1.62%
Drug uptake [23]: 0.9%
Drug uptake [24]: 93.44%
Drug uptake [25]: 95.28%
Drug uptake [26]: 0.72%
k el at 1 h [27]: 0.000183 s⁻¹
kel [28]: 0.275 h⁻¹
kel [29]: 0.438 h⁻¹
CL renal at 1 h [30]: 208 mL/min
CLr [31]: 18.9 L/h
Structure (SMILES): C[C@@H](O)[C@H]1C(=O)N2[C@@H]1[C@@H](C)C(S[C@@H]1CN[C@H](CNS(N)(=O)=O)C1)=[14C]2C(=O)O [[14C]-DORIPENEM]
